Experimental data from patent US12285034B2, “Human and non-human animal use of microbial anaplerotic oil” (HELIAE DEVELOPMENT, LLC, priority 2017, dated 2025).

What was measured:
[1] = system: Aurantiochytrium acetophilum HS399; type: cell-based; conditions: acetic acid titrant (control), pH 7
Protocol: In this implementation, initially (24 h incubation), the culture pH may not be controlled, and the pH of the respective treatments can drift from 7.5 to 8. After 24 h incubation, the desired pH set point of each treatment can be set using the respective organic acids. […] The cultures are aerated at 1.4 vvm and maintained at 27° C. under axenic conditions. […] This medium also contains a trace element solution (5 ml/L) and a vitamin solution (1 ml/L). The trace element solution can contain (g/L): […] […] Residual glucose is analyzed from culture supernatant (5000 g; 5 min) using a colorimetric method based on glucose […] activity. Residual acetate and propionate are analyzed by HPLC using external standard.

[2] = system: Yarrowia lipolytica ATCC18944; type: cell-based; conditions: 192 h, itaconic acid 0.5 / propionate 6 g/L
Protocol: Culture conditions. In one implementation, Yarrowia lipolytica ATCC18944 can be cultivated in triplicates (n=3) in a medium containing (g/L): glycerol (80), monosodium […]), yeast extract (1), NaCl (12.5), MgSO4 (7), H2O (2.5), KCl (0.5), CaCl2 (0.1), KH2PO4 (0.5), trace metal solution (5 mL) and vitamin solution (1 mL). The trace element solution may contain (g/L): […] The vitamin solution can be filter-sterilized (e.g., using 0.2 μm pore size filter) containing (mg L-1): thiamine (100), biotin (0.5) and cyanocobalamin (0.5) unless otherwise stated. In some implementations cyanocobalamin might be added to or subtracted from the medium formulation to change or impact propionic acid deposition in OCFA. […] In one implementation, a concentration of the cyanocobalamin and/or cobalt in the culture medium can be below 0.4 μM. […] The flasks can be incubated in the dark in an orbital shaker at 180 rpm, 27° C. In this implementation, sodium propionate is fed batch every day according to respective treatments. […] Analyses. Cell dry weights can be obtained by drying samples that are previously vacuum filtrated (e.g., using 0.2 μm pore size filters). Residual propionate is analyzed directly by high performance liquid chromatography (HPLC). Lipids and total fatty acids are analyzed using a direct extraction, transesterification followed by gas chromatography (GC) and detection by flame ionization (FID). The different fatty acids are identified and quantified using appropriate internal and external standards. Propionic acid deposition rate.

[3] = system: Aurantiochytrium acetophilum HS399; experiment: Alternative promoters of OCFA production (Example 17); conditions: for capacity to induce the production of OCFAs: flask cultures
Protocol: Further, it may be beneficial to find alternative promotors to produce OCFA that are less toxic to the model organisms or that are simpler. In this implementation, pentanoate, heptanoate, yeast extract, proteose peptone, methionine, valine and isoleucine are evaluated for their capacity to induce the production of OCFAs. Erlenmeyer flasks can be used and A. acetophilum HS399 can be cultured following the protocols described herein.
In this implementation, respective flasks can be supplemented with different concentrations of the proposed promoters and the resulting biomass harvested and analyzed for total lipid and fatty acid analyses.

[4] = system: Aurantiochytrium acetophilum HS399; experiment: Cyanocobalamin and propionate deposition, flask (Example 10); type: cell-based
[5] = system: Aurantiochytrium acetophilum HS399; experiment: Cyanocobalamin impact on glucose metabolism (Examples 16, 20); type: cell-based; conditions: cyanocobalamin 0.37 μM vs 0, propionic acid 3 and 9 g/L
Protocol: As described above, OCFAs anaplerosis can merely take place in the presence of cyanocobalamin. In this implementation, the cell dry weight and residual propionate can be monitored, and residual glucose in the media can be analyzed.
(§1) Aurantiochytrium acetophilum HS399 was cultivated in the presence and absence of cyanocobalamin. […] The vitamin solution contained (mg/L): thiamine (100) and biotin (0.5). All culture materials were autoclaved (121° C., 15 min) and media was filter sterilized before use. […] Biomass for lipid analysis was centrifuged and washed using purified water. The washed biomass was freeze dried.
As described above, OCFAs anaplerosis can merely take place in the presence of cyanocobalamin. In this implementation, the cell dry weight and residual propionate can be monitored, and residual glucose in the media can be analyzed. […] Cell dry weight reached the same titers independently of the cyanocobalamin concentration.

[6] = system: Aurantiochytrium acetophilum HS399; experiment: Cyanocobalamin impact on propionate metabolism (Example 21); type: cell-based
Protocol: as §1, with “cyanocobalamin. […] The trace element solution contained (g/L):” for “cyanocobalamin.”, “dried. […] As described above, OCFAs anaplerosis can merely take place in the presence of cyanocobalamin. In this implementation, the cell dry weight and residual propionate can be monitored, and residual glucose in the media can be analyzed.” for “dried.”

[7] = cyanocobalamin 370 nM vs 0, propionic acid 16 g/L

`CC(=O)O` [Acetic acid, acetic acid, reference compound] was tested, and the “Total Fatty Acid” value [1] was 71.9 ± 5.2 % CDW and the “Total Lipids” value [1] was 89.5 ± 0.5 % CDW.

`C=C(CC(=O)O)C(=O)O` [Itaconic acid, itaconic acid, reference compound] was tested, and the Cell dry weight [2] was 7.9 ± 1.1 g/L, the Consumed propionate [2] was 5.0 ± 1.6 g/L and the “Odd chain fatty acids” value [2] was 1.1 ± 0.6 % DW. The Propionic acid deposition [2] was 0.5 ± 0.2%.

With `CCCCCCC(=O)O` [heptanoate, heptanoic acid] the “toxicity (growth inhibition)” value ([3]; FIG. 53) was “higher than that of propionic acid”.

With `CC[C@H](C)[C@H](N)C(=O)O` [isoleucine] the “capacity to induce the production of OCFAs” value [3] was “identified as a nitrogen and OCFAs source”.

`CSCC[C@H](N)C(=O)O` [methionine, reference compound] was tested, and the “effect of supplementation on growth” value ([4]; 0.5 g/L, with or without cyanocobalamin 0.00037 μM) was “does not appear to have an impact in growth”.

`CC(C)[C@H](N)C(=O)O` [valine] was tested, and the “capacity to induce the production of OCFAs” value [3] was “identified as a nitrogen and OCFAs source”.

cyanocobalamin was tested, and the glucose uptake rate [5] was “significantly (P<0.01 t-student) lower”, the “growth in the first 48 hrs” value [5] was “may not be impacted” and the “effect on cell dry weight” value [6, 7] was “positive difference in cell dry weight”. For the same molecule, the glucose uptake rate [6, 7] was “significantly (P<0.01 t-student) lower”, the “residual propionate in cultures deficient in cyanocobalamin” value ([6]; propionic acid 16 g/L, FIG. 58) was “chronical higher residual propionate” and the “effect of cyanocobalamin deprived media on growth” value ([4]; over 10 generations) was “substantially no impact on growth”.
